Assay results taken from article PMC9681850, “Structural basis of synthetic agonist activation of the nuclear receptor REV-ERB” (Nature Communications, 2022).
“And” between values parts separate entries of the source, which are not always exact repeats. Equal entries are not always repeated. Where two headings read alike, the source gives them in different places.

Key:
[1] = mouse liver microsome stability assay; format: in vitro ADME; conditions: liver microsomes
From the text: We thank the reviewers for the constructive comments, and we have responded to each of the […]
Overall, this is a commendable structure-function study on the transcriptional repressor, REV-ERBα. It includes the identification of an agonist that belongs to the non-heme class of small ligands. The study combines cell-based and in vitro, in vivo, and crystallographic analyses of the ligand-receptor molecular complex.
However, as a spring-board for therapeutic drug discovery, there are a few additional issues that may need to be clarified.
1. In the HEK293 2-hybrid assay, the ERB agonists are described as activators of transcription.
Perhaps, they would be more appropriately described as 'repressors'.
We have updated the manuscript to clarify this issue. In the original manuscript, we used the following to describe how the 2-hybrid assay switches agonists from repressors to activators to allow for better resolution of activity, “This format of the assay essentially functions as a mammalian 2-hybrid assay and detects REVERB agonists as activators of transcription effectively enhancing the sensitivity of such an assay from the typical one hybrid system that detects enhancement of transcriptional repression.” […]

BMAL1 in HepG2 cells = assay: expression of BMAL1 by qPCR; format: cell-based, human; design: key: Bmal1 expression normalized to Ppia; conditions: 5 μM, 24 h, single replicates (n = 4)
From the text: We next determined whether STL1267 can regulate characterized REV-ERB modulated genes in cell lines expressing REV-ERB naturally. Five micromolar doses of both drugs were used in cell-based experiments from this point on. REV-ERB is an established component of the core molecular clock repressing the expression of core clock gene Bmal1[6],[27] as well as others[28],[29]. […] In skeletal muscle, REV-ERB agonism increases the expression of a wide variety of genes important in mitochondrial function.
The human hepatocellular carcinoma cell line, HepG2 cells (ATCC HB-8065), were cultured in 10% FBS 1% L-Glu MEM at 37 °C in a humidified atmosphere of 5% CO2. Prior to RNA extraction cells were treated with either DMSO or REV-ERB agonist for 24 h. The C2C12 proliferating mouse myoblast cells (ATCC, CRL-1772) were cultured in 10% FBS DMEM at 37 °C in a humidified atmosphere of 5% CO2. Prior to RNA extraction cells were treated with either DMSO or REV-ERB agonist for 24 h. Prior to crystal violet cytotoxicity assay, cells were treated with either DMSO or REV-ERB agonist for 48 h.
Mouse tissue was homogenized using a bullet blender. DNA/protein was removed by phase separation using BCP/chloroform. The supernatant (RNA containing fraction) was collected, and RNA was precipitated using isopropanol. The RNA pellets were washed with 75% ethanol and resolubilized in RNAse free water. […]

REV-ERBα LBD = biological target: T1, REV-ERBα LBD (Homo sapiens, UniProt P20393); assay: FRET assay of NCoR ID1 CoRNR box recruitment; format: biochemical; design: agonist-dependent recruitment of NCoR ID1 CoRNR box to the REV-ERBα-LBD
T1 sequence (P20393 284-614 limits assumed): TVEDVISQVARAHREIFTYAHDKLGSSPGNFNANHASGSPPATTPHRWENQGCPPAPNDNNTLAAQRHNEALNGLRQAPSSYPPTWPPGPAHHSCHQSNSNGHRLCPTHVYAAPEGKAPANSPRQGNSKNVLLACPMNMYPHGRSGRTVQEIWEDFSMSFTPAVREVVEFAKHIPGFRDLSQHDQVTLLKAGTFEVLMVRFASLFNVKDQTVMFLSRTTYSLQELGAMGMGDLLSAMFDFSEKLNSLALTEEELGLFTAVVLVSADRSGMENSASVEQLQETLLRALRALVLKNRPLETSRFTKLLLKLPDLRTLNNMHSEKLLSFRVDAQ
Procedure: We noted a recent patent that described a series of REV-ERB agonists (6-substituted[1,2,4]triazolo[4,3-b]pyridazines) in assays that detected the ability of small molecules to enhance the interaction of REV-ERBα with NCoR either in biochemical or cell-based assays.
Histidine tagged REV-ERBα/β complexed with heme was added to each well to a final concentration of 4 nM. NCoR ID1 fluorescein (ref#PV4622, Batch# 1797468C) was added to each well to a final concentration of 150 nM, and terbium anti-histidine (ref#PV5895, batch 1730002B) was added to a final concentration of 1 nM. Mixture was incubated at room temperature on an orbital shaker for 1 h at 200 rpm. The lanthascreen assay protocol (Dual PMT, excitation 340 nm, dual emission 495/520, Gain 110/110) was used to read the plate.

[2] = test system: 43 targets (GPCRs, ion channels, transporters, and other drug targets); assay: NIMH PDSP radioligand displacement panel; format: binding; conditions: of the 43 targets assessed
From the text: We assessed the specificity of STL1267 using both in house nuclear receptor Gal4-NR reporter assays and the NIMH Psychoactive Drug Screening Program (PDSP) assays. We assessed the specificity of STL1267 in the PDSP’s radioligand displacement assays, screening for binding to off-target GPCRs, ion channels, transporters, and other drug targets (Table S1). Of the 43 targets assessed in this panel, we observed no detectable binding in 41 of them. […] Additional assessment in serotonin transporter and kappa opioid receptor activity in a functional assay may be warranted to determine absolute specificity. […]
Receptor RLBA Ki Receptor activity
Suppl ementary Tabl e 1. Speci fi ci ty of STL1267. […]

For `Clc1nnc2ccc(Oc3ccccc3-c3ccccc3)nn12` [STL1267], the half-life [1] was 34 min, the “Bmal1 (Fig. 2c) expression” value (BMAL1 in HepG2 cells) was “attenuated the expression and 0.5800 and 0.6760 and 0.6148 and 0.7607” and the “efficacy of NCoR ID1 recruitment relative to SR9009” value (REV-ERBα LBD) was “roughly double”. For the same compound, the “potency relative to SR9009 in the FRET assay” value (REV-ERBα LBD) was “more than ten times greater”, the EC50 (REV-ERBα LBD; REV-ERBα-LBD) was 130 nM and the “potency relative to SR9009 in the FRET assay” value (REV-ERBα LBD; listed as 1267) was 14.6 fold. For the same compound, the “number of targets with no detectable binding” value [2] was 41.
